Data reported in ChEMBL document CHEMBL1909046, “DrugMatrix in vitro pharmacology data”.

Tests used:
[1] = biological target: Mitogen-activated protein kinase 3 (Homo sapiens, UniProt P27361); assay: DRUGMATRIX: Protein Serine/Threonine Kinase, ERK1 enzyme inhibition (substrate: Myelin Basic Protein); parameters: species or system Escherichia coli; details: Not Active = under 50% inhibition at 10 µM
Carbonic anhydrase 2 = Carbonic anhydrase 2 (Homo sapiens, UniProt P00918); assay: DRUGMATRIX: Carbonic Anhydrase II enzyme inhibition (substrate: 4-Nitrophenyl acetate (4-NPA)); type: tissue-based; details: erythrocyte; Not Active = under 50% inhibition at 10 µM
Histamine H2 receptor = Histamine H2 receptor (Homo sapiens, UniProt P25021); type: cell membranes, CHO-K1, Membrane; details: cho-k1; also: in other assays of this panel Not Active means under 50% inhibition at 10 µM
Histamine H2 receptor, sequence (P25021 whole entry): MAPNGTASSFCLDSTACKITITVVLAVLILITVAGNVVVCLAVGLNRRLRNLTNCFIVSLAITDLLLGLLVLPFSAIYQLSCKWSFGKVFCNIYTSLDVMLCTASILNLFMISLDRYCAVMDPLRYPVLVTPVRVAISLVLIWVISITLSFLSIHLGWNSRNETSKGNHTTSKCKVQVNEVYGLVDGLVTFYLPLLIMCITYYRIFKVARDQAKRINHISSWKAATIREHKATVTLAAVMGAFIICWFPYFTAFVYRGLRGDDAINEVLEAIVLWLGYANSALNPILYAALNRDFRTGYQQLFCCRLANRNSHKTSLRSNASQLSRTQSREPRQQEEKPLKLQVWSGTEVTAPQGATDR

[2] = DRUGMATRIX: Imidazoline I2, Central radioligand binding (ligand: [3H] Idazoxan); type: cell membranes, Rattus norvegicus, Wistar, Cerebral cortex, Membrane; details: Not Active = under 50% inhibition at 10 µM
[3] = DRUGMATRIX: Calcium Channel Type L, Dihydropyridine radioligand binding (ligand: [3H] Nitrendipine); type: cell membranes, Rattus norvegicus, Wistar, Cerebral cortex, Membrane; details: Not Active = under 50% inhibition at 10 µM
[4] = biological target: Delta-type opioid receptor (Homo sapiens, UniProt P41143); type: cell membranes, Membrane; details: hek293; also: in other assays of this panel Not Active means under 50% inhibition at 10 µM
Delta-type opioid receptor, sequence (P41143 whole entry): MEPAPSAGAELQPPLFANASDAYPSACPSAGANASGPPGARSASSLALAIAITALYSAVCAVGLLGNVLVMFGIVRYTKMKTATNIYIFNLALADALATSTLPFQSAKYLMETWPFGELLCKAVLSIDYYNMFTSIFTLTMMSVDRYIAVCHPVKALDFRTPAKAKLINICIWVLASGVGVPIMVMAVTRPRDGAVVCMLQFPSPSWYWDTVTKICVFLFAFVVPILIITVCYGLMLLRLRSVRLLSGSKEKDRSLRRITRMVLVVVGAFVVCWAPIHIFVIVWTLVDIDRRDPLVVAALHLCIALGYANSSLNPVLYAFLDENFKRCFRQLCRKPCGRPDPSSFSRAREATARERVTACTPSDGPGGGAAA

[5] = biological target: cGMP-specific 3',5'-cyclic phosphodiesterase (Homo sapiens, UniProt O76074); assay: DRUGMATRIX: Phosphodiesterase PDE5 enzyme inhibition (substrate: [3H]cGMP + cGMP); type: tissue-based, Platelet; details: platelet; Not Active = under 50% inhibition at 10 µM

Mitogen-activated protein kinase 3, sequence (P27361 whole entry): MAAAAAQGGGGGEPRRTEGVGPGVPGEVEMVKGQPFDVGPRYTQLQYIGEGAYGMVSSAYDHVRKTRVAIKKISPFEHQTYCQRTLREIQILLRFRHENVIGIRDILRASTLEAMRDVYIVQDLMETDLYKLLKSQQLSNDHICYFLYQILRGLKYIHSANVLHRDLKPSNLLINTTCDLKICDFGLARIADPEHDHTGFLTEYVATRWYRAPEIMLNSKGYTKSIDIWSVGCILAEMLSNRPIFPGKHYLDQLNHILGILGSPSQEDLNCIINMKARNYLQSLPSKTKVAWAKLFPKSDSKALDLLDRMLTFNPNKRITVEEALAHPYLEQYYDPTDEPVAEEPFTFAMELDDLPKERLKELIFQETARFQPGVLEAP

COc1ccc(C2C(=O)c3ccccc3C2=O)cc1 [ANISINDIONE]
Not Active: IC50 [1] | IC50 (Carbonic anhydrase 2) | IC50 (Histamine H2 receptor) | IC50 [2] | Ki [2] | IC50 [3] | Ki [3] | IC50 [4] | IC50 [5]

CC[C@H](C)[C@H]1O[C@]2(C=C[C@@H]1C)C[C@@H]1C[C@@H](C/C=C(\C)[C@@H](O[C@H]3C[C@H](OC)[C@@H](O[C@H]4C[C@H](OC)[C@@H](O)[C@H](C)O4)[C@H](C)O3)[C@@H](C)/C=C/C=C3\CO[C@@H]4[C@H](O)C(C)=C[C@@H](C(=O)O1)[C@]34O)O2.CO[C@H]1C[C@H](O[C@H]2[C@H](C)O[C@@H](O[C@@H]3/C(C)=C/C[C@@H]4C[C@@H](C[C@]5(C=C[C@H](C)[C@@H](C(C)C)O5)O4)OC(=O)[C@@H]4C=C(C)[C@@H](O)[C@H]5OC/C(=C\C=C\[C@@H]3C)[C@]54O)C[C@@H]2OC)O[C@@H](C)[C@@H]1O [ABAMECTIN]
Not Active: IC50 [1] | IC50 (Carbonic anhydrase 2) | IC50 (Histamine H2 receptor) | IC50 [2] | Ki [2] | IC50 [3] | Ki [3] | IC50 [4] | IC50 [5]

CN/C(=N\CCSCc1nc[nH]c1C)NC#N [CIMETIDINE]
Not Active: IC50 [1] | IC50 (Carbonic anhydrase 2) | IC50 [2] | Ki [2] | IC50 [3] | Ki [3] | IC50 [4] | IC50 [5]

NYSTATIN
Not Active: IC50 [1] | Ki [1] | IC50 (Carbonic anhydrase 2) | Ki (Carbonic anhydrase 2) | IC50 (Histamine H2 receptor) | Ki (Histamine H2 receptor) | IC50 [2] | Ki [2] | IC50 [3] | Ki [3] | IC50 [4] | Ki [4] | IC50 [5] | Ki [5]

CCCNCC(O)COc1ccccc1C(=O)CCc1ccccc1 (stereo unspecified) [PROPAFENONE]
Not Active: IC50 [1] | IC50 (Carbonic anhydrase 2) | IC50 (Histamine H2 receptor) | IC50 [2] | Ki [2] | IC50 [3] | Ki [3] | IC50 [4] | IC50 [5]

COC(=O)Nc1nc2ccc([S+]([O-])c3ccccc3)cc2[nH]1 (stereo unspecified) [OXFENDAZOLE]
Not Active: IC50 [1] | IC50 (Carbonic anhydrase 2) | IC50 (Histamine H2 receptor) | IC50 [2] | Ki [2] | IC50 [3] | Ki [3] | IC50 [4] | IC50 [5]

CC(=O)O[C@H]1C(=O)[C@@]2(C)[C@H]([C@H](OC(=O)c3ccccc3)[C@]3(O)C[C@H](OC(=O)[C@H](O)[C@@H](NC(=O)c4ccccc4)c4ccccc4)C(C)=C1C3(C)C)[C@]1(OC(C)=O)CO[C@@H]1C[C@@H]2O [PACLITAXEL]
Not Active: IC50 [1] | IC50 (Carbonic anhydrase 2) | IC50 (Histamine H2 receptor) | IC50 [2] | Ki [2] | IC50 [3] | Ki [3] | IC50 [5]
